Test results taken from patent publication US20080312435A1, “Imine Compound” (TAISHO PHARMACEUTICAL CO., LTD., priority 2004, published 2008).

Legend:
human CB1 receptor = target: T1, human CB1 receptor (Homo sapiens, UniProt P21554); assay: Human CB1 receptor binding inhibition test; conditions: CHO-DHFR(−) cells stably expressing human CB1 receptor, same manner as Experimental Example 1
T1 construct: expressed in transfected cells
Description: Human CB1 Receptor Binding Inhibition Test
The CHO-DHFR(−) cells capable of stably expressing a CB1 receptor were prepared in the same manner as in Experimental Example 1. The binding test to the human CB1 receptor was performed to obtain 50% inhibitory concentration (IC50 value) of a test compound.

human CB2 receptor = target: T2, human CB2 receptor (Homo sapiens, UniProt P34972); assay: Human CB2 receptor binding inhibition test ([3H]CP-55,940, CHO membrane fractions); conditions: [3H]CP-55,940, membrane fractions of CHO cells stably expressing human CB2 receptor, 25° C., 2 hours; read-out: CB2 IC50 (Inhibition of binding to human CB2 receptor)
T2 construct: expressed in transfected cells
Outline: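 Membranes from CHO-DHFR(−) cells stably expressing human CB2 used for [3H]CP-55,940 binding; filter-bound radioactivity counted by scintillation after washes with 0.1% BSA buffer. Nonspecific binding defined with 2.0 μM CP-55,940; IC50 for inhibition of specific binding.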

T1 sequence (P21554 whole entry): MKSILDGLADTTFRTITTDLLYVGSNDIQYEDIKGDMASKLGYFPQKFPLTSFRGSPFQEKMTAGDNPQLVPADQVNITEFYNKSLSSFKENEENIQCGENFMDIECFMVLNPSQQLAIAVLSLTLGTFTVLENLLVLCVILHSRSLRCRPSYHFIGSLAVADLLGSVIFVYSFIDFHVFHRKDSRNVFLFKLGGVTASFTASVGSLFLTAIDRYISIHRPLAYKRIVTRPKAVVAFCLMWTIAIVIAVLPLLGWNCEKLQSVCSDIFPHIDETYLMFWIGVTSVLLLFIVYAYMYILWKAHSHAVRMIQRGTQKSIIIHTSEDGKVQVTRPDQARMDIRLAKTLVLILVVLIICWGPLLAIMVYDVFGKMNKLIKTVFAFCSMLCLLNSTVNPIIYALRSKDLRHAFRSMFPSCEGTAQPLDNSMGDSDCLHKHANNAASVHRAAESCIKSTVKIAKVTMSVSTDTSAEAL
T2 sequence (P34972 whole entry): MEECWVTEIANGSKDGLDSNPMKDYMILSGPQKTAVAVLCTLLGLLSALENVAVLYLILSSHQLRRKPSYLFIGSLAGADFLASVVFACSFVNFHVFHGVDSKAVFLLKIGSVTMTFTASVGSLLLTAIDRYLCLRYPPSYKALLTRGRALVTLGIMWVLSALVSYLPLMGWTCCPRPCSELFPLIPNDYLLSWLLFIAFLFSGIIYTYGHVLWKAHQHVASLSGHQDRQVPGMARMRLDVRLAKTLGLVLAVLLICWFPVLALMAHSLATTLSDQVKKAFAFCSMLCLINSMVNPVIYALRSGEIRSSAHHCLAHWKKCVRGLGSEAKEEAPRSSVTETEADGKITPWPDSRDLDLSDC

Row | Structure (SMILES) | IC50 (human CB1 receptor) | IC50 (human CB2 receptor) | melting point
1 | CC(C)(C)c1c/c(=N\C(=O)c2cccc(C(F)(F)F)c2F)n(CC2CC2)s1 [compound 56] | 294 nM | 0.8 nM | 85 to 87 °C
2 | COCCn1c(C)c(C)s/c1=N\C(=O)c1cccc(C(F)(F)F)c1F [compound 104] | 327 nM | 1.7 nM | 182 to 183 °C
3 | CCOCCn1c(C)c(C)s/c1=N\C(=O)c1cccc(C(F)(F)F)c1F [compound 107] | 18 nM | 0.5 nM | 147 to 148 °C
4 | CCOCCn1c(C)c(C(C)C)s/c1=N\C(=O)c1cccc(C(F)(F)F)c1F [compound 115] | 25 nM | 0.5 nM | 96 to 97 °C
5 | CCc1ccccc1C(=O)/N=c1\sc(C(C)(C)C)c(C)n1CC1CC1 [compound 181] | 115 nM | 0.8 nM | 120 to 122 °C
6 | Cc1c(C(C)(C)C)s/c(=N\C(=O)c2ccccc2C(C)C)n1CC1CC1 [compound 182] | 22 nM | 0.3 nM | 168 to 169 °C
7 | Cc1c(C(C)(C)C)s/c(=N\C(=O)c2ccccc2C(F)(F)F)n1CC1CC1 [compound 183] | 138 nM | 0.5 nM | 90 to 91 °C
8 | Cc1cccc(C(=O)/N=c2\sc(C(C)(C)C)c(C)n2CC2CC2)c1C [compound 215] | 61 nM | 1.1 nM | 97 to 98 °C
9 | Cc1c(C(C)(C)C)s/c(=N\C(=O)c2c(F)cccc2F)n1CC1CC1 [compound 223] | 168 nM | 2 nM | 123 to 124 °C
10 | Cc1c(C(C)(C)C)s/c(=N\C(=O)c2cc(F)ccc2Br)n1CC1CC1 [compound 228] | 228 nM | 0.5 nM | 92 to 94 °C
11 | Cc1c(C(C)(C)C)s/c(=N\C(=O)c2ccc(F)cc2Br)n1CC1CC1 [compound 229] | 263 nM | 1 nM | 126 to 128 °C
12 | Cc1c(C(C)(C)C)s/c(=N\C(=O)c2cc(Cl)ccc2Cl)n1CC1CC1 [compound 232] | 211 nM | 0.5 nM | 129 to 131 °C
13 | COc1cccc(C(=O)/N=c2\sc(C(C)(C)C)c(C)n2CC2CC2)c1OC [compound 235] | 315 nM | 3.4 nM | 93 to 94 °C
14 | CCOc1ccc(C(=O)/N=c2\sc(C(C)(C)C)c(C)n2CC2CC2)c(OCC)c1 [compound 237] | 200 nM | 13.1 nM | 116 to 118 °C
15 | Cc1c(F)cccc1C(=O)/N=c1\sc(C(C)(C)C)c(C)n1CC1CC1 [compound 240] | 168 nM | 3.4 nM | 94 to 96 °C
16 | Cc1c(Cl)cccc1C(=O)/N=c1\sc(C(C)(C)C)c(C)n1CC1CC1 [compound 243] | 73 nM | 0.4 nM | 88 to 90 °C
17 | Cc1c(Br)cccc1C(=O)/N=c1\sc(C(C)(C)C)c(C)n1CC1CC1 [compound 245] | 32 nM | 0.8 nM | 89 to 90 °C
18 | Cc1ccc(C(=O)/N=c2\sc(C(C)(C)C)c(C)n2CC2CC2)c(Br)c1 [compound 246] | 319 nM | 0.8 nM | 82 to 84 °C
19 | Cc1c(C(C)(C)C)s/c(=N\C(=O)c2c(F)cccc2C(F)(F)F)n1CC1CC1 [compound 256] | 102 nM | 1.1 nM | 128 to 130 °C
20 | Cc1c(C(C)(C)C)s/c(=N\C(=O)c2cccc(C(F)(F)F)c2Cl)n1CC1CC1 [compound 258] | 19 nM | 0.6 nM | 93 to 94 °C

Row | Structure (SMILES) | IC50 (human CB1 receptor) | IC50 (human CB2 receptor) | melting point
21 | COc1ccc(C(=O)/N=c2\sc(C(C)(C)C)c(C)n2CC2CC2)c(C)c1 [compound 261] | 375 nM | 1 nM | 95 to 96 °C
22 | COc1ccc(F)cc1C(=O)/N=c1\sc(C(C)(C)C)c(C)n1CC1CC1 [compound 262] | 435 nM | 0.6 nM | 87 to 89 °C
23 | COc1cccc(F)c1C(=O)/N=c1\sc(C(C)(C)C)c(C)n1CC1CC1 [compound 263] | 56 nM | 0.6 nM | 119 to 121 °C
24 | COc1cc(Cl)ccc1C(=O)/N=c1\sc(C(C)(C)C)c(C)n1CC1CC1 [compound 264] | 181 nM | 1 nM | 163 to 165 °C
25 | COc1ccc(Cl)cc1C(=O)/N=c1\sc(C(C)(C)C)c(C)n1CC1CC1 [compound 265] | 100 nM | 1 nM | 98 to 100 °C
26 | COc1ccc(C(=O)/N=c2\sc(C(C)(C)C)c(C)n2CC2CC2)c(OC)c1OC [compound 286] | 435 nM | 12.7 nM | 88 to 89 °C
27 | Cc1c(C(C)(C)C)s/c(=N\C(=O)c2c(F)ccc(C(F)(F)F)c2F)n1CC1CC1 [compound 288] | 49 nM | 0.2 nM | 109 to 111 °C
28 | Cc1c(C(C)(C)C)s/c(=N\C(=O)c2c(C(F)(F)F)ccc(Cl)c2F)n1CC1CC1 [compound 289] | 136 nM | 0.5 nM | 182 to 183 °C
29 | Cc1ccnc(C)c1C(=O)/N=c1\sc(C(C)(C)C)c(C)n1CC1CC1 [compound 299] | 28 nM | 2.8 nM | 156 to 157 °C
30 | Cc1c(C(C)(C)C)s/c(=N\C(=O)c2cccnc2Cl)n1CC1CC1 [compound 301] | 191 nM | 2 nM | 124 to 125 °C
31 | Cc1c(C(C)(C)C)s/c(=N\C(=O)c2ncccc2Br)n1CC1CC1 [compound 304] | 372 nM | 2.3 nM | 141 to 142 °C
32 | Cc1c(C(C)(C)C)s/c(=N\C(=O)c2nc(Cl)ccc2Cl)n1CC1CC1 [compound 306] | 68 nM | 0.5 nM | 143 to 145 °C
33 | Cc1c(C(C)(C)C)s/c(=N\C(=O)c2c(Cl)cncc2Cl)n1CC1CC1 [compound 308] | 336 nM | 3.6 nM | 260 to 261 °C
34 | Cc1c(C(C)(C)C)s/c(=N\C(=O)c2cc(Cl)cnc2Cl)n1CC1CC1 [compound 309] | 405 nM | 2.1 nM | 113 to 134 °C
35 | Cc1c(C(C)(C)C)s/c(=N\C(=O)c2ccnc3ccccc23)n1CC1CC1 [compound 323] | 362 nM | 6.2 nM | 124 to 126 °C
36 | Cc1c(C(C)(C)C)s/c(=N\C(=O)c2c(Cl)ccc3cc(Cl)cnc23)n1CC1CC1 [compound 327] | 55 nM | 3.6 nM | 172 to 174 °C
37 | Cc1c(C(C)(C)C)s/c(=N\C(=O)C2CCCCC2)n1CC1CC1 [compound 332] | 98 nM | 3.3 nM | 141 to 142 °C
38 | CCOCCn1/c(=N/C(=O)c2cccc(Cl)c2Cl)cc(C(C)(C)C)n1C [compound 486] | 211 nM | 5.1 nM | 145 to 146 °C
39 | CC(C)OCCn1/c(=N/C(=O)c2cccc(Cl)c2Cl)cc(C(C)(C)C)n1C [compound 492] | 265 nM | 5 nM | –
40 | Cc1c(C(=O)/N=c2\cc(C(C)(C)C)n(C)n2CCOC(C)C)cccc1C(F)(F)F [compound 494] | 279 nM | 2.1 nM | –
